In patent US10041105B2, “Methods and devices for detection of resistance to an enzyme inhibitor” (priority 2014, dated 2018):

Assays:
[1] = test system: beta lactamase of patient isolate colony; assay: Clavulanate resistance using a single bacterial colony
Procedure: (§6) As described in EXAMPLE 7, the assay consisted of two reagents, Reagent Mix I and Reagent Mix II, where Reagent Mix I contained one master mix without clavulanate while Reagent Mix II contained a master mix with clavulanate. In this example, reagent mixes equivalent to 0.25 mL of the master mixes were lyophilized in test tubes.
(§7) Patient samples were cultured overnight on an agar plate. A single colony was suspended in 2.5 mL sample buffer as described in EXAMPLE 7, of which 0.25 mL was added to Reagent Mixes I and II vials. After incubation at room temperature for 15 min, the reagent vials were inserted into a luminometer for signal measurement.

[2] = test system: SHV-2 beta lactamase (Escherichia coli); format: biochemical
Procedure: (§1) The reagent mix was prepared as a 2× concentrated solution. The 2× concentrated reagent mix contained 50 mM HEPES (pH 7.0 to 7.2), 0.2 mM ZnCl2, 8 mM ATP, 10 mM DTT, 0.1 mM Coenzyme A, 5 micrograms/mL luciferase, 0.01 mM Cephalosporin-O-Luciferin, 0.1 mg/mL BSA, 8 mM CaCl2, 30 mM MgCl2, and 1% Triton X-100. Cephalosporin-O-Luciferin was used as a beta lactamase substrate. This substrate was synthesized and purified according to a procedure published in a scientific article (Angew. Chem. Int. Ed. 2007 Vol. 46, pp. 7031-7034), which is cited here solely as a reference.
(§2) Genes encoding five species of beta lactamase were synthesized and cloned into an E. coli expression vector. The E. coli cells transformed with the expression vector containing the gene encoding a beta lactamase was induced to express the enzyme. The cells were then pelleted, suspended in a sample buffer (Fisher Scientific Cat. No. 90084) and sonicated to lyse the cells.
(§3) 2× concentrated reagent mixes were prepared. The 2× reagent mix without a beta lactamase inhibitor or antibiotic (Reagent Mix I) was prepared according to the composition provided in Example 6. The 2× concentrated reagent mix containing a beta lactamase inhibitor or imipenem (Reagent Mix IIb) was prepared by supplementing the Reagent Mix I with 64 micrograms/mL of clavulanate (Reagent Mix IIa) or 64 micrograms/mL of imipenem (Reagent Mix IIb).
(§4) Reactions were carried out by diluting 50 microliters of 2× reagent mixes into 45 microliters of deionized water, followed by addition of 5 microliters of cell lysate. […] Light signal was measured using a luminometer after 15 min incubation at room temperature. The signal in Reagent Mix I was used to detect the presence of beta lactamase in the sample by comparing the signal in the reaction to that of negative controls while the signal ratio was used to determine the resistance of the beta lactamase to clavulanate or imipenem.
(§5) In this example, the signal ratios were expressed as R-Factor values, which were calculated as follows: R-Factor=10×(Reagent Mix II Signal÷Reagent Mix I Signal)

p99 beta lactamase = p99 beta lactamase (Enterobacter cloacae, UniProt P05364); format: biochemical
p99 beta lactamase, sequence (P05364 21-381): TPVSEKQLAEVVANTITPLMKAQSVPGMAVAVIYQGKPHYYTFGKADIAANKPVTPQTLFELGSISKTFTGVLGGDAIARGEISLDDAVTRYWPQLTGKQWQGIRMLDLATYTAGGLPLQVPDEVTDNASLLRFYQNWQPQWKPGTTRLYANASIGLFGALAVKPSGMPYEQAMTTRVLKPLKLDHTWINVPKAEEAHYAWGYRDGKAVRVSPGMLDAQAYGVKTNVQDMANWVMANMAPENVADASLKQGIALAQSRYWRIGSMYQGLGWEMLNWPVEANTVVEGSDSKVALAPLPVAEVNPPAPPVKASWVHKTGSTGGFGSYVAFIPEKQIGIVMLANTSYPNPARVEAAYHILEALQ
Procedure: as §1, §2, §3, §4, §5

SHV-2 beta lactamase = SHV-2 beta lactamase (Escherichia coli, UniProt P0A9Z7); format: biochemical
SHV-2 beta lactamase, sequence (P0A9Z7 22-286): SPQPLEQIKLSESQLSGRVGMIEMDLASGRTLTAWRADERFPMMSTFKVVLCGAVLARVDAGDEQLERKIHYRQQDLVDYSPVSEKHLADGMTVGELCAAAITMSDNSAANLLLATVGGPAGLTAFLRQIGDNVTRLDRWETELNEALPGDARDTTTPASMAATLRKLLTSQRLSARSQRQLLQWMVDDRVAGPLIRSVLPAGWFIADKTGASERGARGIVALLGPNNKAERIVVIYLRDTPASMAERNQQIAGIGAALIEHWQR
Procedure: as §1, §2, §3, §4, §5

[3] = test system: beta lactamase of patient isolate colony; assay: Clavulanate resistance using a single bacterial colony; remark: listed apart in the source
Procedure: as §6, §7

TEM-2 beta lactamase = TEM-2 beta lactamase (Escherichia coli, UniProt P62593, Q37K); assay: Beta lactamase luminescent assay with inhibitor reagent mixes; format: biochemical
Procedure: as §1, §2, §3, §4, §5

KPC-2 beta lactamase = KPC-2 beta lactamase (Klebsiella pneumoniae, UniProt Q9F663); assay: as above; format: biochemical; details: 64 micrograms/mL in 2× mix, lysate dilution 1:10
KPC-2 beta lactamase, sequence (Q9F663 25-293 limits assumed): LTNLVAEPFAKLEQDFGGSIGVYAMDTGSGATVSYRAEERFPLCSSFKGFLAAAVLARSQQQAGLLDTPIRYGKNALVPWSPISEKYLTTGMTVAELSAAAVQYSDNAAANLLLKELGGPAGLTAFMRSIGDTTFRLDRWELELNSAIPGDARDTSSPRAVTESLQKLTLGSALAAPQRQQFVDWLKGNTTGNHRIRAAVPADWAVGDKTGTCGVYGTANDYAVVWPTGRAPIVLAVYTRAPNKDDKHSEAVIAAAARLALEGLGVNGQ
Procedure: as §1, §2, §3, §4, §5

[4] = molecular target: New Deli Metallo-beta lactamase (NDM-2) (Klebsiella pneumoniae, UniProt C7C422, P28A); assay: as above; format: biochemical; details: 64 micrograms/mL in 2× mix, lysate dilution 1:2
New Deli Metallo-beta lactamase (NDM-2), sequence (C7C422 29-270 P28A (numbered from the first residue shown)): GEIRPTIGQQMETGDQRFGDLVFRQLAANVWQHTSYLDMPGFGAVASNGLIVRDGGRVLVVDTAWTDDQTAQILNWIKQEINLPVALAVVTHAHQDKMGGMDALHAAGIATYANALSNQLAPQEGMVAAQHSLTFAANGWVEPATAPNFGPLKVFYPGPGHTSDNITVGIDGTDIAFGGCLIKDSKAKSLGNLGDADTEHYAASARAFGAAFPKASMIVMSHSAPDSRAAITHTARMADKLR
Procedure: as §1, §2, §3, §4, §5

[5] = test system: beta lactamase of patient isolate colony; assay: Clavulanate resistance using a single bacterial colony; remark: listed apart in the source
Procedure: as §6, §7

[6] = test system: beta lactamase of patient isolate colony; assay: as above; remark: listed apart in the source
Procedure: as §6, §7

SHV-2 beta lactamase (Escherichia coli), sequence (P0A9Z7 22-286): as the sequence (P0A9Z7 22-286) above

## O=C(O)[C@H]1/C(=C/CO)O[C@@H]2CC(=O)N21 [Clavulanate, clavulanate]
[1]; No. 5, Sample ID B612
  Interpretation: susceptible to CA (CA (clavulanate) resistance cutoff R-Factor value: 2.50)
  R-Factor: 0.27
[1]; No. 6, Sample ID B616
  Interpretation: susceptible to CA (CA (clavulanate) resistance cutoff R-Factor value: 2.50)
  R-Factor: 0.13
[2]
  R-Factor: 0.23
p99 beta lactamase
  S/N (Signal to Noise Ratio) in inhibitor-containing reagent mix: 48.00
SHV-2 beta lactamase
  S/N (Signal to Noise Ratio) in inhibitor-containing reagent mix: 1.00
  resistance of the beta lactamase to the substance: susceptible
[3]; No. 1, Sample ID 1845
  Interpretation: susceptible to CA (CA (clavulanate) resistance cutoff R-Factor value: 2.50)
  R-Factor: 0.07
[3]; No. 2, Sample ID 1847
  Interpretation: susceptible to CA (CA (clavulanate) resistance cutoff R-Factor value: 2.50)
  R-Factor: 0.15
[3]; No. 20, Sample ID B650
  Interpretation: susceptible to CA (CA (clavulanate) resistance cutoff R-Factor value: 2.50)
  R-Factor: 0.11
[3]; No. 21, Sample ID B671
  Interpretation: resistant to CA (CA (clavulanate) resistance cutoff R-Factor value: 2.50)
  R-Factor: 4.12
TEM-2 beta lactamase; 64 micrograms/mL in 2× mix, lysate undiluted
  R-Factor: 1.18
TEM-2 beta lactamase; 64 micrograms/mL in 2× mix, lysate undiluted, 15 min
  S/N (Signal to Noise Ratio) in inhibitor-containing reagent mix: 5.00
TEM-2 beta lactamase; judged from R-Factor
  resistance of the beta lactamase to the substance: susceptible
KPC-2 beta lactamase
  R-Factor: 8.94
KPC-2 beta lactamase; 15 min
  S/N (Signal to Noise Ratio) in inhibitor-containing reagent mix: 40.00
KPC-2 beta lactamase; listed as clavulanate
  R-Factor: high
[4]
  R-Factor: 6.02
[4]; 15 min
  S/N (Signal to Noise Ratio) in inhibitor-containing reagent mix: 13.00
[4]; listed as clavulanate
  R-Factor: high
[5]; No. 3, Sample ID 1820
  Interpretation: resistant to CA (CA (clavulanate) resistance cutoff R-Factor value: 2.50)
  R-Factor: 3.67
[5]; No. 7, Sample ID 1789
  Interpretation: susceptible to CA (CA (clavulanate) resistance cutoff R-Factor value: 2.50)
  R-Factor: 1.14
[5]; No. 8, Sample ID 1800
  Interpretation: resistant to CA (CA (clavulanate) resistance cutoff R-Factor value: 2.50)
  R-Factor: 11.13
[5]; No. 13, Sample ID 1962-2
  Interpretation: resistant to CA (CA (clavulanate) resistance cutoff R-Factor value: 2.50)
  R-Factor: 15.47
[5]; No. 14, Sample ID 1963
  Interpretation: resistant to CA (CA (clavulanate) resistance cutoff R-Factor value: 2.50)
  R-Factor: 19.95
[6]; No. 17, Sample ID 2015
  Interpretation: susceptible to CA (CA (clavulanate) resistance cutoff R-Factor value: 2.50)
  R-Factor: 1.74
[6]; No. 18, Sample ID 2022-1
  Interpretation: susceptible to CA (CA (clavulanate) resistance cutoff R-Factor value: 2.50)
  R-Factor: 1.31
